Source: paper PMC11277489, “Novel Piperazine Derivatives of Vindoline as Anticancer Agents” (International Journal of Molecular Sciences, 2024)

Assays:
SNB-75 = assay: NCI60 one-dose screen (10 μM), CNS Cancer; assay type: cell-based, human; details: Homo sapiens; 10 μM; SNB-75, CNS Cancer; read-out: Growth percent rate
MALME-3M = assay: NCI60 one-dose screen (10 μM), Melanoma; assay type: cell-based; details: Homo sapiens; 10 μM; MALME-3M, Melanoma; read-out: Growth percent rate
SF-295 = assay: NCI60 one-dose screen (10 μM), CNS Cancer; assay type: cell-based; details: Homo sapiens; 10 μM; SF-295, CNS Cancer; read-out: Growth percent rate
TK-10 = assay: NCI60 one-dose screen (10 μM), Renal Cancer; assay type: cell-based; details: Homo sapiens; 10 μM; TK-10, Renal Cancer; read-out: Growth percent rate
KM12 = assay: NCI60 one-dose screen (10 μM), Colon Cancer; assay type: cell-based, human; details: Homo sapiens; 10 μM; KM12, Colon Cancer; read-out: Growth percent rate
[1] = test system: 60 human tumor cell lines (NCI60); assay: NCI60 one-dose screen (10 μM), whole panel; assay type: cell-based; details: 10 μM; mean over 60 human cancer cell lines; read-out: Growth percent rate, Mean
CCRF-CEM = assay: NCI60 one-dose screen (10 μM), Leukemia; assay type: cell-based; details: Homo sapiens, 10 μM, Leukemia, read-out: Growth percent rate
UACC-257 = assay: NCI60 one-dose screen (10 μM), Melanoma; assay type: cell-based; details: Homo sapiens; 10 μM; UACC-257, Melanoma; read-out: Growth percent rate
MOLT-4 = assay: NCI60 one-dose screen (10 μM), Leukemia; assay type: cell-based, human; details: Homo sapiens; 10 μM; MOLT-4, Leukemia; read-out: Growth percent rate
OVCAR-4 = assay: NCI60 one-dose screen (10 μM), Ovarian Cancer; assay type: cell-based; details: Homo sapiens; 10 μM; OVCAR-4, Ovarian Cancer; read-out: Growth percent rate
SNB-19 = assay: NCI60 one-dose screen (10 μM), CNS Cancer; assay type: cell-based; details: Homo sapiens; 10 μM; SNB-19, CNS Cancer; read-out: Growth percent rate
CAKI-1 = assay: NCI60 one-dose screen (10 μM), Renal Cancer; assay type: cell-based; details: Homo sapiens; 10 μM; CAKI-1, Renal Cancer; read-out: Growth percent rate
NCI-H460 = assay: NCI60 one-dose screen (10 μM), Non-small Cell Lung Cancer; assay type: cell-based; details: Homo sapiens; 10 μM; NCI-H460, Non-small Cell Lung Cancer; read-out: Growth percent rate
MDA-MB-435 = assay: NCI60 one-dose screen (10 μM), Melanoma; assay type: cell-based; details: Homo sapiens; 10 μM; MDA-MB-435, Melanoma; read-out: Growth percent rate
SK-MEL-2 = assay: NCI60 one-dose screen (10 μM), Melanoma; assay type: cell-based; details: Homo sapiens; 10 μM; SK-MEL-2, Melanoma; read-out: Growth percent rate
HCT-116 = assay: NCI60 one-dose screen (10 μM), Colon Cancer; assay type: cell-based; details: Homo sapiens; 10 μM; HCT-116, Colon Cancer; read-out: Growth percent rate
HT29 = assay: NCI60 one-dose screen (10 μM), Colon Cancer; assay type: cell-based; details: Homo sapiens, HT-29; 10 μM; HT29, Colon Cancer; read-out: Growth percent rate
M14 = assay: NCI60 one-dose screen (10 μM), Melanoma; assay type: cell-based; details: Homo sapiens; 10 μM; M14, Melanoma; read-out: Growth percent rate
HL-60(TB) = assay: NCI60 one-dose screen (10 μM), Leukemia; assay type: cell-based; details: Homo sapiens; 10 μM; HL-60(TB), Leukemia; read-out: Growth percent rate
SN12C = assay: NCI60 one-dose screen (10 μM), Renal Cancer; assay type: cell-based; details: Homo sapiens, 10 μM, Renal Cancer, read-out: Growth percent rate
NCI-H322M = assay: NCI60 one-dose screen (10 μM), Non-small Cell Lung Cancer; assay type: cell-based; details: Homo sapiens, 10 μM, Non-small Cell Lung Cancer, read-out: Growth percent rate
SK-MEL-5 = assay: NCI60 one-dose screen (10 μM), Melanoma; assay type: cell-based, human; details: Homo sapiens; 10 μM; SK-MEL-5, Melanoma; read-out: Growth percent rate
K-562 = assay: NCI60 one-dose screen (10 μM), Leukemia; assay type: cell-based; details: Homo sapiens, K562; 10 μM; K-562, Leukemia; read-out: Growth percent rate
OVCAR-8 = assay: NCI60 one-dose screen (10 μM), Ovarian Cancer; assay type: cell-based; details: Homo sapiens; 10 μM; OVCAR-8, Ovarian Cancer; read-out: Growth percent rate
SW-620 = assay: NCI60 one-dose screen (10 μM), Colon Cancer; assay type: cell-based; details: Homo sapiens; 10 μM; SW-620, Colon Cancer; read-out: Growth percent rate
A549/ATCC = assay: NCI60 one-dose screen (10 μM), Non-small Cell Lung Cancer; assay type: cell-based; details: Homo sapiens; 10 μM; A549/ATCC, Non-small Cell Lung Cancer; read-out: Growth percent rate
HOP-62 = assay: as above; assay type: cell-based; details: Homo sapiens; 10 μM; HOP-62, Non-small Cell Lung Cancer; read-out: Growth percent rate
DU-145 = assay: NCI60 one-dose screen (10 μM), Prostate Cancer; assay type: cell-based; details: Homo sapiens; 10 μM; DU-145, Prostate Cancer; read-out: Growth percent rate
ACHN = assay: NCI60 one-dose screen (10 μM), Renal Cancer; assay type: cell-based; details: Homo sapiens, 10 μM, Renal Cancer, read-out: Growth percent rate
786–0 = assay: NCI60 one-dose screen (10 μM), Renal Cancer; assay type: cell-based; details: Homo sapiens; 10 μM; 786-0, Renal Cancer; read-out: Growth percent rate
HCC-2998 = assay: NCI60 one-dose screen (10 μM), Colon Cancer; assay type: cell-based; details: Homo sapiens; 10 μM; HCC-2998, Colon Cancer; read-out: Growth percent rate
MCF7 = assay: NCI60 one-dose screen (10 μM), Breast Cancer; assay type: cell-based; details: Homo sapiens; 10 μM; MCF7, Breast Cancer; read-out: Growth percent rate
RPMI-8226 = assay: NCI60 one-dose screen (10 μM), Leukemia; assay type: cell-based; details: Homo sapiens; 10 μM; RPMI-8226, Leukemia; read-out: Growth percent rate
U251 = assay: NCI60 one-dose screen (10 μM), CNS Cancer; assay type: cell-based; details: Homo sapiens, U-251; 10 μM; U251, CNS Cancer; read-out: Growth percent rate
SK-MEL-28 = assay: NCI60 one-dose screen (10 μM), Melanoma; assay type: cell-based; details: Homo sapiens; 10 μM; SK-MEL-28, Melanoma; read-out: Growth percent rate
IGROV1 = assay: NCI60 one-dose screen (10 μM), Ovarian Cancer; assay type: cell-based; details: Homo sapiens, IGROV-1; 10 μM; IGROV1, Ovarian Cancer; read-out: Growth percent rate
NCI-H23 = assay: NCI60 one-dose screen (10 μM), Non-small Cell Lung Cancer; assay type: cell-based; details: Homo sapiens; 10 μM; NCI-H23, Non-small Cell Lung Cancer; read-out: Growth percent rate
SF-268 = assay: NCI60 one-dose screen (10 μM), CNS Cancer; assay type: cell-based; details: Homo sapiens; 10 μM; SF-268, CNS Cancer; read-out: Growth percent rate
OVCAR-3 = assay: NCI60 one-dose screen (10 μM), Ovarian Cancer; assay type: cell-based; details: Homo sapiens; 10 μM; OVCAR-3, Ovarian Cancer; read-out: Growth percent rate
A498 = assay: NCI60 one-dose screen (10 μM), Renal Cancer; assay type: cell-based; details: Homo sapiens; 10 μM; A498, Renal Cancer; read-out: Growth percent rate
EKVX = assay: NCI60 one-dose screen (10 μM), Non-small Cell Lung Cancer; assay type: cell-based; details: Homo sapiens, 10 μM, Non-small Cell Lung Cancer, read-out: Growth percent rate
NCI-H522 = assay: as above; assay type: cell-based; details: Homo sapiens; 10 μM; NCI-H522, Non-small Cell Lung Cancer; read-out: Growth percent rate

In the case of CC[C@]12C=CCN3CC[C@@]4(c5ccc(OC)cc5N(C)[C@H]4[C@@](O)(C(=O)OC)[C@@H]1OC(=O)CCC(=O)N1CCN(Cc4ccc(F)cc4)CC1)[C@@H]32 [Compound 30], the activity at 10 µM (SNB-75) is reported as 64.5%, the activity at 10 µM (MALME-3M) is reported as 93.3% and the activity at 10 µM (SF-295) is reported as 67.9%. For the same molecule, the activity at 10 µM (TK-10) was 60.6%, the activity at 10 µM (KM12) was 83.6% and the activity at 10 µM [1] was 71.4%. It also gave an activity at 10 µM (CCRF-CEM) of 61.4%, an activity at 10 µM (UACC-257) of 86% and an activity at 10 µM (MOLT-4) of 59.4%. It also gave an activity at 10 µM (OVCAR-4) of 56.4%, an activity at 10 µM (SNB-19) of 69.5% and an activity at 10 µM (CAKI-1) of 28.1%. For the same molecule, the activity at 10 µM (NCI-H460) was 83.4%, the activity at 10 µM (MDA-MB-435) was 85.7% and the activity at 10 µM (SK-MEL-2) was 90.2%. For the same molecule, the activity at 10 µM (HCT-116) was 67.8%, the activity at 10 µM (HT29) was 60.5% and the activity at 10 µM (M14) was 61%. For the same molecule, the activity at 10 µM (HL-60(TB)) was 82.2%, the activity at 10 µM (SN12C) was 71.2% and the activity at 10 µM (NCI-H322M) was 97.2%. For the same molecule, the activity at 10 µM (SK-MEL-5) was 62.6%, the activity at 10 µM (K-562) was 65.2% and the activity at 10 µM (OVCAR-8) was 73.7%. The activity at 10 µM (SW-620) was 102%, the activity at 10 µM (A549/ATCC) was 55.4% and the activity at 10 µM (HOP-62) was 88.4%. The activity at 10 µM (DU-145) was 82.6%, the activity at 10 µM (ACHN) was 71.3% and the activity at 10 µM (786–0) was 84.2%. The activity at 10 µM (HCC-2998) was 85.3%, the activity at 10 µM (MCF7) was 62.2% and the activity at 10 µM (RPMI-8226) was 46.3%. For the same molecule, the activity at 10 µM (U251) was 71.6%, the activity at 10 µM (SK-MEL-28) was 104% and the activity at 10 µM (IGROV1) was 68.4%. For the same molecule, the activity at 10 µM (NCI-H23) was 83.4%, the activity at 10 µM (SF-268) was 50.8% and the activity at 10 µM (OVCAR-3) was 63.7%. The activity at 10 µM (A498) was 110%, the activity at 10 µM (EKVX) was 60.2% and the activity at 10 µM (NCI-H522) was 59.7%.
